# B1: PKCα phosphorylated rAFAP-110: rAFAP-110 phosphorylated with recombinant PKCα (protein, UniProt Q90738 1-729, looked up)
# Actin filament-associated …: MEELIVELRLFLELLDHEYLTSTVREKKAVITNILLRIQSSKGFEIKEHVQKPEVANSLPAPPQMPLPEIPQQWLPPDNGPPPLPTSSLPEGYYEEAVPVSPGKAPEYITSNYDSDAMSSSYESYDEEEEDGKGKKMRHQWPSEEASMDLVKDAKICAFLLRKKRFGQWTKLLCVIKENKLLCYKSSKDQQPQMELLLNDCSITYIPKDSKKKKHELKISHQGADALVLAVQSKEQAEQWLKVIKDVCSNCTGTVDSDGPLSSSPVHKTELEKKLSSERPSSDGEGAVENGITTVCNGKEQVKRKKSSKTEAKGTVTKVTGKKITKIIGLGKKKPSTDEQTSSAEEDVPTCGYLNVLSNNRWRERWCRVKDNKLIFHKDRTDLKTHIVSIPLRGCEVIPGLDSKHPLTFRLLRNGQEVAVLEASSSEDMGRWIGMLLAETGSSTDPGALHYDYIDVEMTASVIQAAKQTFCFMNRRVISTNPYRGSTANGYACPSGMALHYDDVPCINGSFKGKKPPATANGITGKVRTLNSQPKKPESVSCVKRTASNAEQYKYGKNRVEAVAKRLQSKEEELLKRKEALRNRLAQLRKERKDLRAAIEVNAGRKTQVILEDKLKKLEEECKTKEAERVNLELELTEVKESLKKALAGGITLGLAIEPKSGTSSPQSPIFKHRTLENSPISSCDTSDTECSIPVNSAAALKRPPSSNNSPCRGHVLRKAKEWEMKNGT
# modifications: PKCalpha phosphorylated
# notes: rAFAP-110 phosphorylated with recombinant PKCα
# How the values were obtained:
# [1] = test system: AFAP-110 in C3H10T1/2 cells; assay: Phosphoamino acid analysis of AFAP-110 after PMA treatment; format: cell-based; conditions: 100 nM PMA, 15 min; relative to 4α-PDD treatment; densitometry
# Procedure: (1, PKCα (0.5 μg); 2, PKCα (0.5 μg)+rAFAP-110 (10 μg); 3, rAFAP-110 (10 μg)). Data are representative of three experiments. […] C3H10T1/2 cells were serum-starved in phosphate-free media supplemented with radiolabeled ^32P-orthophosphate overnight and treated with 100 nM PMA, 100 nM 4α-PDD, or DMSO, the vehicle used. Cells were lysed after 15 min and AFAP-110 was immunoprecipitated using the antibody F1. Radiolabeled AFAP-110 was isolated by SDS-PAGE and subjected to phosphoamino acid analysis.
# To test whether AFAP-110 could be phosphorylated in cells in response to PKC activation in vivo, serum-starved C3H10T1/2 fibroblasts labeled with ^32P-orthophosphate were stimulated with 100 nM PMA for 15 min to activate PKC. Cos-1 cells were maintained and transfected as previously described (Guappone and Flynn, 1997, supra). C3H10T1/2 cells were cultured as previously described (Qian et al., 2000, supra). Transient transfections of C3H10T1/2 cells were carried out using SuperFect (QIAGEN, Santa Clarita, Calif.) as previously described (Qian et al., 2000, supra).
# Phosphoamino Acid Analysis C3H10T1/2 cells were grown to 60% confluence in 100-mm culture dishes, serum starved overnight, and then stimulated with 100 nM PMA or 100 nM 4α-PDD for 15 min. […] Relative intensity compared with background of radiation from spots was quantitated with ImageQuant software (Molecular Dynamics, Sunnyvale, Calif.).
# C3H10T1/2 cells = assay: Immunofluorescence of actin structures after PMA treatment; format: cell-based
# Procedure: For PKC activation with PMA, C3H10T1/2 cells were transfected with plasmids encoding AFAP-110. Twenty-four hours after transfections, the cells were serum starved overnight. PMA at 100 nM was used to activate PKC for 60 min. Cells were fixed and permeablized as previously described (Qian et al., 1998, supra). After washing, cells were labeled with BODIPY 650/665 phalloidin (Molecular Probes, Eugene, Oreg.) and 4C3 antibody for 20 min. Cells were washed again and then labeled with ALEXA 488 (Molecular Probes) for 25 min. Cells were washed and mounted on slides with Fluoromount (Fisher, Pittsburgh, Pa.). For serum induction experiments, C3H10T1/2 cells were serum starved overnight, and then serum-complete media was added. Cells on coverslips were washed and fixed at 15-min time points >2 h. Polyclonal antibody F1 and TRITC-labeled anti-rabbit secondary antibody were used to visualize endogenous AFAP-110, with washings as above. BODIPY 650/665 phalloidin was used to visualize actin. A Zeiss LSM 510 microscope (Thornwood, N.Y.) was used to gather images, which were recolored from grayscale. Scale bars were generated and inserted by LSM 510 software (Carl Zeiss, Thornwood, N.Y.).
# Immunofluorescence labeling and imaging was carried out as described. C3H10T1/2 cells expressing AFAP-110 were treated with either 100 nM PMA (A1-A3) or 100 nM 4α-PDD (A4-A6) for 15 min after overnight serum starvation. AFAP-110 is represented in red (A1 and A4), whereas actin is represented in green (A2 and A5). (A3 and A6) Overlap images of AFAP-110 and actin. Arrows indicate colocalization of AFAP-110 with dynamic actin structures: white arrows, filopodia; gray arrows, lamellipodia; black arrows, actin filaments in the top panel and disrupted actin filaments/rosettes in the bottom panel. […] Immunofluorescence labeling and imaging were carried out as described in Experimental Procedures. C3H10T1/2 cells coexpressing GFP-AFAP-110 (B1) and myristoylated, Flag-tagged PKC were labeled to show Flag-tagged PKC (B2) and actin (B3). Arrows indicate colocalization of AFAP-110 with dynamic actin structures: white arrows label filopodia and black arrows label lamellipodia. […] Immunofluorescence labeling and imaging were carried out as described. C3H10T1/2 cells were transfected with pCMV-GFP-AFAP-110 (C1-C6) and pCMV-GFP-AFAP^Δ180-226 (C7-C9). PMA at 100 nM was used to stimulate the cells for 1 h. C1, C4, and C7; green GFP fusion protein images; C2, C5, and C8; X actin images; C3, C6, and C9, overlap images of GFP fusion protein and actin images.
# actin filaments [2] = assay: Low-speed cosedimentation assay (20,800×g), actin filament cross-linking; format: biochemical; conditions: 0.5 μM protein, 2 μM actin filaments; FIG. 13A
# Description: (§1) Binding constants were derived from the sedimentation of rAFAP-110 by actin. Accordingly, rAFAP-110 in the pellet and supernatant correspond to the bound and free rAFAP-110, respectively. The sum of densities of rAFAP-110 bands in the supernatant and pellet corresponds to the total mass of rAFAP-110 in the sample. The data representing the bound rAFAP-110 as a function of free rAFAP-110 were fit by nonlinear least squares to both the Langmuir (B=BMAX/(1+Kd/F)) and […] 2 μM F-actin filaments and different concentrations of rAFAP-110 in 5 mM MgCl2, 1 mM EGTA, 2 mM ATP, and 50 mM KCl at 20,800×g for 30 min at 4° C. After the centrifugation, both supernatant and pellets were analyzed by SDS-PAGE gel. Confocal microscopy assays were performed as described (Ishikawa et al., 1998, J. Biol. Chem., 273:26991-26997). Briefly, 2 μM F-actin containing 10% rhodamine-phalloidin-labeled F-actin were mixed with different concentrations of rAFAP-110 or other purified recombinant proteins in 5 mM MgCl2, 1 mM EGTA, 2 mM ATP, and 50 mM KCl at RT for 30 min. After the incubation, the reactions were applied between glass slides and coverslips and observed under confocal microscopy (Zeiss, Oberkochen, Germany). Samples for negative staining were adsorbed to grids coated with nitrocellulose and stabilized with carbon (Ernest F. Fullam, Latham, N.Y.). Unbound protein was removed by successive washes with buffer and water before staining with 1% uranylacetate (Cooper and Pollard, 1982, Methods Enzymol., 85(PtB), 182-210; Pollard and Cooper, 1982, Methods Enzymol., 85(PtB), 211-233).
# Actin filaments are unable to efficiently pellet at 20,800×g unless cross-linked to form heavier particles (either isotropic networked or bundled actin filaments; Cooper and Pollard, 1982, supra; Pollard and Cooper, 1982, supra; Meyer et al., 1990, J. Cell. Biol. 110:2013-2024; Wachsstock et al., 1993, Biophys. J., 65: 205-214; Rybakova et al., 1996, J. Cell. Biol., 135:661-672). […] The purified recombinant proteins were incubated with actin filaments and then were centrifuged at 20,800×g. Both supernatants (S) and pellets (P) were applied to SDS-PAGE gel, followed by Coomassie staining. 1, rAFAP-110 with actin filaments; 2, rAFAP-110^Δcterm with actin filaments; 3, rAFAP-110 only; 4, rAFAP-110^Δcterm only; 5, actin filaments only. FIG. 8B is a graph of cross-linked actin filaments versus free rAFAP-110. rAFAP-110 at 0.05,0.11,0.21,0.43, 0.86, and 2.14 μM was incubated with the 2 μM concentration of G-actin polymerized into actin filaments. After the incubation, the reactions were centrifuged at 20,800×g. Both supernatants and pellets were applied to SDS-PAGE gel, followed by the Western blot analysis to detect rAFAP-110 and Coomassie blue staining to detect actin, respectively. The data of cross-linked actin filaments and free rAFA-110 were gathered by scanning densitometry of SDS-PAGE gel analysis.
# actin filaments [3] = assay: Confocal microscopy of rhodamine-phalloidin-labeled actin filaments; format: biochemical; conditions: 0.5 μM protein, 2 μM actin filaments; FIG. 13B
# Description: as §1
# To further test AFAP-110's capability to cross-link actin filaments, we analyzed rhodamine-phalloidin-labeled actin filaments for cross-linking by confocal microscopy. In FIG. 9A, purified rAFAP-110 or rAFAP-110^Δcterm were incubated with rhodamine-phalloidin-labeled actin filaments. […] 1, actin filaments only; 2, rAFAP-110 with actin filaments; 3, rAFAP-110^Δcterm with actin filaments. FIG. 9B presents confocal microscopy images. Different concentrations of α-actinin (top two panels, low=0.0625 μM and high=1.25 μM) and rAFAP-110 (bottom two panels, low=0.106 μM and high=2.1 μM) were incubated with rhodamine-phalloidin-labeled actin filaments. […] Actin filaments labeled with rhodamine-phalloidin appeared uniformly fluorescent in the absence of an actin binding protein (FIG. 9A1). […] Electron microscopy was used to confirm rAFAP-110's ability to cross-link actin filaments.
# [4] = after treatment with 100 nM PMA
Molecule,increase in phosphoserine of AFAP-110 [1],increase in phosphothreonine of AFAP-110 [1],time in which the changes occur (C3H10T1/2 cells; 100 nM PMA),"actin structures upon PMA treatment (C3H10T1/2 cells; 100 nM PMA, serum-starved cells expressing AFAP-110)",time by which cells completely reverted to quiescent phenotype (C3H10T1/2 cells; [4]),time by which changes largely revert (C3H10T1/2 cells; [4]),ability to coprecipitate actin filaments compared with rAFAP-110 (actin filaments [2]),confocal fluorescence pattern of actin filaments (actin filaments [3])
CCCCCCCCCCCCCC(=O)O[C@@H]1[C@@H](C)[C@@]2(O)[C@@H](C=C(CO)C[C@]3(O)C(=O)C(C)=C[C@@H]23)[C@@H]2C(C)(C)[C@]12OC(C)=O [PMA],3.9 fold,5.7 fold,≤ 15 min,"Lamellipodia, filopodia, and rosettes appear",≤ 6 h,≤ 2 h,,
B1,,,,,,,increased the ability of rAFAP-110 to coprecipitate actin filaments,large aggregates of fluorescence

# Source: patent US20030104443A1, “AFAP sequences, polypeptides, antibodies and methods” (University of West Virginia, priority 2001, published 2003)
